From the NIST ThermoML archive (doi:10.1016/j.jct.2018.02.005)
Numbers after ± are expanded uncertainties.

Experiment: refractive index (Na D-line) (dimensionless)
Details: 298.15 K; 100 kPa; Liquid; Standard Abbe refractometry

refractive index	Structure (SMILES)
1.37503 ± 0.00033	CC(C)O [propan-2-ol]
1.33251 ± 0.00031	O [water]
1.32655 ± 0.00031	CO [methanol]
1.35947 ± 0.00033	CCO [ethanol]
